This is an account of results in US10829473B2, “Modulators of the cystic fibrosis transmembrane conductance regulator protein and methods of use” (AbbVie Overseas S.Á.R.L., priority 2017, dated 2020).

Molecules are shown by their SMILES. Like-named read-outs stand apart in the source and are kept apart here. A value given as a limit tells only on which side of the number the result lay.

The assay addresses T1, F508delCFTR (Homo sapiens, UniProt P13569, DEL508-508).
T1 construct: expressed in transfected cells; host or cells: CFBE41o- human lung derived epithelial cells (CFBE41o-F508delCFTR-HRP), doxycycline-inducible
Nature of the assay: Cell Surface Expression-Horse Radish Peroxidase (CSE-HRP) Assay.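 As to EC50 (with co-corrector): co-corrector chromenyl benzoic acid corrector at 2 or 3 µM.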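 As to Maximum % activity (without co-corrector): % of on-plate positive control chromenyl benzoic acid corrector at 2 or 3 µM.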 It is filed as cell-based. The conditions noted are these: for Maximum % activity (with co-corrector) / Emax: maximum at any tested concentration; for Emax: read-out: Maximum % activity (without co-corrector). The method, boiled down: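 Corrector compounds were given as 8-point 3-fold series from 20 or 30 μM, with or without a 2 μM co-corrector, for 18-24 h at 33 °C. Surface HRP was read by luminol luminescence as % of positive control; variable-Hill-slope sigmoidal fitting gave EC50 from triplicate plates.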

Where [1] appears, read: test compound alone, without co-corrector, read-out: EC50 (without co-corrector).
[2] abbreviates: with co-corrector, read-out: EC50 (with co-corrector).

T1 sequence (P13569 with tags, fused parts or gaps DEL508-508): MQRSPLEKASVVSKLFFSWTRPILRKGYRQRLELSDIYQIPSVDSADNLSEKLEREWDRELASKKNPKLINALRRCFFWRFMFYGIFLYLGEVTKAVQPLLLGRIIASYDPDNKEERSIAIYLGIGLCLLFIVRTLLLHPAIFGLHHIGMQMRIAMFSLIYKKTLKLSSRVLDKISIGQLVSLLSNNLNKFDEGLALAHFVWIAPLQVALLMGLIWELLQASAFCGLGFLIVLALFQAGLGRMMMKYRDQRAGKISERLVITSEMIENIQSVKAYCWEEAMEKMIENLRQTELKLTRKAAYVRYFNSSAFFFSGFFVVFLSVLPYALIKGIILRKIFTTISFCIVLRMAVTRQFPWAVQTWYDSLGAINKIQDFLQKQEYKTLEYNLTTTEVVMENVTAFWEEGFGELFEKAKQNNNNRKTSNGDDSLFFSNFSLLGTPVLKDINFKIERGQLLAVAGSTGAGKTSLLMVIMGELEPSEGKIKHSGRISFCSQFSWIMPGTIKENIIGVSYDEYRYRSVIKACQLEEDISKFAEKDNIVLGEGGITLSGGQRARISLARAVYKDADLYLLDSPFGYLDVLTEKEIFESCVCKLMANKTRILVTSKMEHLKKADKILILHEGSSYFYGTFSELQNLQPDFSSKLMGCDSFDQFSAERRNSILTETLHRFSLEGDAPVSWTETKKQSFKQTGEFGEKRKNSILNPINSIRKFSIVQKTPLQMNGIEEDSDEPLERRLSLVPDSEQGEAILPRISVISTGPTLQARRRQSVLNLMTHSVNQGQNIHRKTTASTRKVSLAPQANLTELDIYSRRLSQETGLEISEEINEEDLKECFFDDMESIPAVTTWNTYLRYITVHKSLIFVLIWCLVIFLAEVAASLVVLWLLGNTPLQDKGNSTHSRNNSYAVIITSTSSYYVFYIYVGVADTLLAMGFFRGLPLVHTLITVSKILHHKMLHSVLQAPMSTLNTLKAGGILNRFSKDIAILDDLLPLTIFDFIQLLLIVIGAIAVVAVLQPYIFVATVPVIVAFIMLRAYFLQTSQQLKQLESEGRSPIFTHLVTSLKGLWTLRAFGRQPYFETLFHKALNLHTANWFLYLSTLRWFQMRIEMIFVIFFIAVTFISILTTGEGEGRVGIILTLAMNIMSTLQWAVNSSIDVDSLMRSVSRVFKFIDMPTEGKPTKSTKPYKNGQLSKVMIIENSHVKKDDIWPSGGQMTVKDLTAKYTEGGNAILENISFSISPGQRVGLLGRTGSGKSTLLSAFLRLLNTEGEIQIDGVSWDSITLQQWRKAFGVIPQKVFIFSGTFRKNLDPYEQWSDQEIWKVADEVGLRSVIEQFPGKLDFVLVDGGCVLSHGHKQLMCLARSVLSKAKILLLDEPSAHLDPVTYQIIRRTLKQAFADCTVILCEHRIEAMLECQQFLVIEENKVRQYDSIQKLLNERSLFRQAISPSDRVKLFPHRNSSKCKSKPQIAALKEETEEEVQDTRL

For the compound `CCOc1ccc(C2(OC)CCC2)cc1C1(C(=O)NS(=O)(=O)c2cccc3nc(C)ccc23)CC1` [Example I-105, 1-[2-ethoxy-5-(1-methoxycyclobutyl)phenyl]-N-(2-methylquinoline-5-sulfonyl)cyclopropane-1-carboxamide], the 50% effective concentration (EC50) – broadly, the concentration needed to bring the measured effect to its halfway point – is, setting by setting: under setting [1], less than 3 µM; under setting [2], less than 3 µM. Moreover, the “Maximum % activity (with co-corrector)” value (with co-corrector) is reported as “+++ (≥350)”. Moreover, the Emax (without co-corrector) was greater than 150%.

As for `Cc1ccc(OC2COC2)c(C2(C(=O)NS(=O)(=O)c3cccc4nc(C)ccc34)CC2)c1` [Example I-106, 1-{5-methyl-2-[(oxetan-3-yl)oxy]phenyl}-N-(2-methylquinoline-5-sulfonyl)cyclopropane-1-carboxamide], the half-maximal effective concentration (EC50) under setting [1] was 3 to 10 µM and the EC50 under setting [2] is less than 3 µM. Further, the “Maximum % activity (with co-corrector)” value (with co-corrector) is “+++ (≥350)”. Besides, the Emax (without co-corrector) is greater than 150%.

In the case of `COC[C@@H](C)Oc1ccc(C)cc1C1(C(=O)NS(=O)(=O)c2cccc3nc(C)ccc23)CC1` [Example I-107, 1-(2-{[(2R)-1-methoxypropan-2-yl]oxy}-5-methylphenyl)-N-(2-methylquinoline-5-sulfonyl)cyclopropane-1-carboxamide], the EC50 by setting is: under setting [1], less than 3 µM; under setting [2], less than 3 µM. The “Maximum % activity (with co-corrector)” value (with co-corrector) was “+++ (≥350)”. The Emax (without co-corrector) is greater than 150%.

For `CC(C)COc1ccc(N(C)C)c(C2(C(=O)NS(=O)(=O)c3cccc4ncccc34)CC2)n1` [Example I-108, 1-[3-(dimethylamino)-6-(2-methylpropoxy)pyridin-2-yl]-N-(quinoline-5-sulfonyl)cyclopropane-1-carboxamide], the concentration giving a half-maximal response (EC50) runs as follows: under setting [1], less than 3 µM; under setting [2], less than 3 µM. The “Maximum % activity (with co-corrector)” value (with co-corrector) is “+++ (≥350)”. For the same compound, the Emax (without co-corrector) was greater than 150%.

Regarding `Cc1ccc2c(S(=O)(=O)NC(=O)C3(c4cc(N(C)C)cnc4OCC(C)C)CC3)cccc2n1` [Example I-109, 1-[5-(dimethylamino)-2-(2-methylpropoxy)pyridin-3-yl]-N-(2-methylquinoline-5-sulfonyl)cyclopropane-1-carboxamide], the EC50 under setting [1] was less than 3 µM and the concentration for a half-maximal effect (EC50) under setting [2] is less than 3 µM. The “Maximum % activity (with co-corrector)” value (with co-corrector) is on record as “+++ (≥350)”. Further, the Emax (without co-corrector) is greater than 150%.

Turning to `COCC(C)(C)c1ccc(OC)c(C2(C(=O)NS(=O)(=O)c3cccc4ncccc34)CC2)c1` [Example I-110, 1-[2-methoxy-5-(1-methoxy-2-methylpropan-2-yl)phenyl]-N-(quinoline-5-sulfonyl)cyclopropane-1-carboxamide], the half-maximal effective concentration (EC50) under setting [1] is less than 3 µM and the concentration giving a half-maximal response (EC50) under setting [2] was less than 3 µM. For the setting “with co-corrector”, the “Maximum % activity (with co-corrector)” value is reported as “+++ (≥350)”. Further, under “without co-corrector”, the Emax is greater than 150%.

With `CCc1ccc(O[C@H](C)COC)c(C2(C(=O)NS(=O)(=O)c3cccc4ncccc34)CC2)c1` [Example I-111, 1-(5-ethyl-2-{[(2R)-1-methoxypropan-2-yl]oxy}phenyl)-N-(quinoline-5-sulfonyl)cyclopropane-1-carboxamide], the EC50 under setting [1] was less than 3 µM and the EC50 under setting [2] is less than 3 µM. Further, where the note is “with co-corrector”, the “Maximum % activity (with co-corrector)” value is “+++ (≥350)”. Where the note is “without co-corrector”, the Emax is greater than 150%.

Take `CCc1ccc(O[C@H](C)COC)c(C2(C(=O)NS(=O)(=O)c3cccc4nc(C)ccc34)CC2)c1` [Example I-112, 1-(5-ethyl-2-{[(2R)-1-methoxypropan-2-yl]oxy}phenyl)-N-(2-methylquinoline-5-sulfonyl)cyclopropane-1-carboxamide]: the EC50 was less than 3 µM under setting [1] and less than 3 µM under setting [2]. The “Maximum % activity (with co-corrector)” value (with co-corrector) is reported as “+++ (≥350)”. Besides, the Emax (without co-corrector) is greater than 150%.

For `CO[C@@H](C)COc1ccc(C)cc1C1(C(=O)NS(=O)(=O)c2cccc3ncccc23)CC1` [Example I-113, 1-{2-[(2S)-2-methoxypropoxy]-5-methylphenyl}-N-(quinoline-5-sulfonyl)cyclopropane-1-carboxamide], the 50% effective concentration (EC50) runs as follows: under setting [1], less than 3 µM; under setting [2], less than 3 µM. For the same compound, the “Maximum % activity (with co-corrector)” value (with co-corrector) is recorded as “+++ (≥350)”. Further, for the setting “without co-corrector”, the Emax is greater than 150%.

Turning to `CO[C@@H](C)COc1ccc(C)cc1C1(C(=O)NS(=O)(=O)c2cccc3nc(C)ccc23)CC1` [Example I-114, 1-{2-[(2S)-2-methoxypropoxy]-5-methylphenyl}-N-(2-methylquinoline-5-sulfonyl)cyclopropane-1-carboxamide], the EC50 reads like this: under setting [1], less than 3 µM; under setting [2], less than 3 µM. For the setting “with co-corrector”, the “Maximum % activity (with co-corrector)” value is recorded as “+++ (≥350)”. Besides, the Emax (without co-corrector) was greater than 150%.

In the case of `CO[C@H](C)COc1ccc(C)cc1C1(C(=O)NS(=O)(=O)c2cccc3ncccc23)CC1` [Example I-115, 1-{2-[(2R)-2-methoxypropoxy]-5-methylphenyl}-N-(quinoline-5-sulfonyl)cyclopropane-1-carboxamide], the concentration giving a half-maximal response (EC50) under setting [1] was less than 3 µM and the EC50 under setting [2] is less than 3 µM. The “Maximum % activity (with co-corrector)” value (with co-corrector) is “+++ (≥350)”. Also, for the setting “without co-corrector”, the Emax is greater than 150%.

Regarding `CO[C@H](C)COc1ccc(C)cc1C1(C(=O)NS(=O)(=O)c2cccc3nc(C)ccc23)CC1` [Example I-116, 1-{2-[(2R)-2-methoxypropoxy]-5-methylphenyl}-N-(2-methylquinoline-5-sulfonyl)cyclopropane-1-carboxamide], the EC50 under setting [1] is less than 3 µM and the 50% effective concentration (EC50) under setting [2] was less than 3 µM. Further, the “Maximum % activity (with co-corrector)” value (with co-corrector) was “+++ (≥350)”. Also, where the note is “without co-corrector”, the Emax was greater than 150%.

With `CCc1ccc(O[C@H]2CCOC2)c(C2(C(=O)NS(=O)(=O)c3cccc4ncccc34)CC2)c1` [Example I-117, 1-(5-ethyl-2-{[(3S)-oxolan-3-yl]oxy}phenyl)-N-(quinoline-5-sulfonyl)cyclopropane-1-carboxamide], the EC50 was less than 3 µM under setting [1] and less than 3 µM under setting [2]. Further, the “Maximum % activity (with co-corrector)” value (with co-corrector) is given as “+++ (≥350)”. For the same compound, the Emax (without co-corrector) was greater than 150%.

As for `CCc1ccc(O[C@@H]2CCOC2)c(C2(C(=O)NS(=O)(=O)c3cccc4ncccc34)CC2)c1` [Example I-118, 1-(5-ethyl-2-{[(3R)-oxolan-3-yl]oxy}phenyl)-N-(quinoline-5-sulfonyl)cyclopropane-1-carboxamide], the EC50 under setting [1] was less than 3 µM and the EC50 under setting [2] was less than 3 µM. Also, the “Maximum % activity (with co-corrector)” value (with co-corrector) is given as “+++ (≥350)”. The Emax (without co-corrector) was greater than 150%.

On to `CCc1ccc(O[C@@H]2CCOC2)c(C2(C(=O)NS(=O)(=O)c3cccc4nc(C)ccc34)CC2)c1` [Example I-119, 1-(5-ethyl-2-{[(3R)-oxolan-3-yl]oxy}phenyl)-N-(2-methylquinoline-5-sulfonyl)cyclopropane-1-carboxamide], for which the EC50 is, setting by setting: under setting [1], less than 3 µM; under setting [2], less than 3 µM. Under “with co-corrector”, the “Maximum % activity (with co-corrector)” value was “+++ (≥350)”. Also, the Emax (without co-corrector) is greater than 150%.

`Cc1ccc(O[C@@H]2CCOC2)c(C2(C(=O)NS(=O)(=O)c3cccc4ncccc34)CC2)c1` [Example I-122, 1-(5-methyl-2-{[(3R)-oxolan-3-yl]oxy}phenyl)-N-(quinoline-5-sulfonyl)cyclopropane-1-carboxamide]: the half-maximal effective concentration (EC50) is, setting by setting: under setting [1], less than 3 µM; under setting [2], less than 3 µM. The “Maximum % activity (with co-corrector)” value (with co-corrector) was “+++ (≥350)”. Further, the Emax (without co-corrector) was greater than 150%.

For `Cc1ccc(O[C@@H]2CCOC2)c(C2(C(=O)NS(=O)(=O)c3cccc4nc(C)ccc34)CC2)c1` [Example I-123, 1-(5-methyl-2-{[(3R)-oxolan-3-yl]oxy}phenyl)-N-(2-methylquinoline-5-sulfonyl)cyclopropane-1-carboxamide], the EC50 by setting is: under setting [1], less than 3 µM; under setting [2], less than 3 µM. Also, the “Maximum % activity (with co-corrector)” value (with co-corrector) is listed as “+++ (≥350)”. Further, where the note is “without co-corrector”, the Emax is greater than 150%.

As to `Cc1ccc(O[C@H]2CCOC2)c(C2(C(=O)NS(=O)(=O)c3cccc4nc(C)ccc34)CC2)c1` [Example I-124, 1-(5-methyl-2-{[(3S)-oxolan-3-yl]oxy}phenyl)-N-(2-methylquinoline-5-sulfonyl)cyclopropane-1-carboxamide], the EC50 under setting [1] is less than 3 µM and the EC50 under setting [2] is less than 3 µM. In addition, under “with co-corrector”, the “Maximum % activity (with co-corrector)” value is on record as “+++ (≥350)”. Under “without co-corrector”, the Emax is greater than 150%.

On to `O=C(NS(=O)(=O)c1ccccc1)C1(c2ccc(Cl)cc2Cl)CC1` [Example III-3, N-(benzenesulfonyl)-1-(2,4-dichlorophenyl)cyclopropane-1-carboxamide], for which the EC50 reads like this: under setting [1], 3 to 10 µM; under setting [2], 3 to 10 µM. Also, the “Maximum % activity (with co-corrector)” value (with co-corrector) is given as “+++ (≥350)”. Further, the Emax (without co-corrector) was in the range of 50 to 150%.

`COc1ccc(C2(C(=O)NS(=O)(=O)c3ccccc3)CC2)cc1` [Example III-5, N-(benzenesulfonyl)-1-(4-methoxyphenyl)cyclopropane-1-carboxamide]: the EC50 by setting is: under setting [1], greater than 10 µM; under setting [2], greater than 10 µM. Besides, for the setting “with co-corrector”, the “Maximum % activity (with co-corrector)” value is “+ (<150)”. For the setting “without co-corrector”, the Emax was less than 50%.

Consider `O=C(NS(=O)(=O)c1ccccc1)C1(c2ccccc2)CC1` [Example III-6, N-(benzenesulfonyl)-1-phenylcyclopropane-1-carboxamide], for which the EC50 by setting is: under setting [1], greater than 10 µM; under setting [2], 3 to 10 µM. The “Maximum % activity (with co-corrector)” value (with co-corrector) was “++ (≥150 and <350)”. Moreover, the Emax (without co-corrector) was less than 50%.

`O=C(NS(=O)(=O)c1ccccc1)C1(c2ccc(Cl)cc2)CCC1` [Example III-7, N-(benzenesulfonyl)-1-(4-chlorophenyl)cyclobutane-1-carboxamide]: the EC50 reads like this: under setting [1], greater than 10 µM; under setting [2], 3 to 10 µM. In addition, the “Maximum % activity (with co-corrector)” value (with co-corrector) was “++ (≥150 and <350)”. For the setting “without co-corrector”, the Emax is less than 50%.
